The structures appear in SMILES notation.

The assay concerns the target Metallo-beta-lactamase type 2 (Klebsiella pneumoniae, UniProt C7C422). The assay can be described thus: Competitive inhibition of NDM-1 (unknown origin) using penicillin G as substrate by Michaelis-Menten equation based kinetic analysis.

Chain of Metallo-beta-lactamase type 2 (C7C422 whole entry): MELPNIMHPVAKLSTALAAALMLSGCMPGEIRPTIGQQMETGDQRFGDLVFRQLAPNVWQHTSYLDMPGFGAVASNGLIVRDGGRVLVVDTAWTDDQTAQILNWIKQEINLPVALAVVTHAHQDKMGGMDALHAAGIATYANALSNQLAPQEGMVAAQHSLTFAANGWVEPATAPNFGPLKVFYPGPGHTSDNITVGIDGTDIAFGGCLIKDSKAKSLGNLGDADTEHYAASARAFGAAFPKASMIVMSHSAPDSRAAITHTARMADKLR

Broadly, the Ki is a dissociation constant, usually derived from enzyme kinetics or from competition with a known ligand. A low value points to a stronger hold on the target. As to `N#Cc1c(-c2ccccc2)c(-c2ccccc2)n(Cc2ccccc2)c1NC(=O)c1ccccc1`, the Ki stood at 9 µM.
In turn, `N#Cc1c(-c2ccccc2)c(-c2ccccc2)n(Cc2ccccc2)c1/N=C/c1ccccc1` displayed a Ki of 3.2 µM.
In turn, `N#Cc1c(-c2ccccc2)c(-c2ccccc2)n(Cc2ccccc2)c1/N=C/c1cccs1` returned a Ki of 1.7 µM.
Consider `N#Cc1c(-c2ccccc2)c(-c2ccccc2)n(Cc2ccccc2)c1/N=C/c1ccc(O)cc1`, for which affinity was put at a Ki of 1.3 µM.
To `COC(=O)c1ccc(/C=N/c2c(C#N)c(-c3ccccc3)c(-c3ccccc3)n2Cc2ccccc2)cc1` belongs 34 µM.

The record behind these values is BindingDB's records for doi:10.1016/j.bmcl.2023.129387 (The University of Queensland, 2023).
